In US20150224164A1, “TREATMENT OF AUTISM SPECTRUM DISORDERS USING GLYCYL-L-2-METHYLPROLYL-L-GLUMATIC ACID” (Neuren Pharmaceuticals Limited, priority 2013, published 2015):
Where a SMILES comes first, the peptide text is derived from it.

Tested on: 12-month old rats
Test: Morris water maze, spatial reference memory
Type: in vivo, rat
Details: 0.96 or 4.8 mg/day s.c. mini-osmotic pump, vs saline
Description: We used male Wistar rats 12, 8 or 4 months of age. The Morris water maze test was conducted using a black plastic pool filled to a depth of 25 cm with water colored black with a non-toxic dye. […] The platform remained in that position though the training. The experiment used extra-maze cues (i.e. objects in the room surrounding the pool) that the rats could use to navigate to the platform. Distinctive posters or paintings were hung on the walls. Furniture in the room was not moved during the testing period. The placement of the pool allowed the experimenter an easy access to it from all sides. The pool was emptied and refilled daily during testing, with water at 25° C.+/-2° C. Rats in each group were trained to swim to the submerged platform. The rats received six 60-second trials per day for four consecutive days. A trial began by placing the rat into the water facing the wall of the pool, at one of four start locations (north, south, east, west). The sequence of start locations was chosen pseudorandomly, so that the start location of any given trial was different from that of the previous trial, and no start location was used more than twice during daily training. […] The swim latency for each rat was recorded for each trial for each day of the acquisition and retention phases and changes between phases were examined using Analysis of Variance.

**Q.** With `C[C@@]1(C(=O)N[C@@H](CCC(=O)O)C(=O)O)CCCN1C(=O)CN` [Example G-2-MePE, Glycyl-L-2-methylprolyl-L-glutamic acid] (HELM PEPTIDE1{G.[C[C@@]1(C(=O)[*:2])CCCN1[*:1]].E}$$$$V2.0) as the compound, how does the “memory: time needed to reach the platform, retention phase” value read?
**A.** improved memory
